Results: patent US20250382273A1 (INSTITUT NATIONAL DE LA SANTE ET DE LA RECHERCHE MEDICALE, priority 2022, published 2025)

tested on: M. tuberculosis H37Rv_DdnL49P_gfp; type: cell-based, Mycobacterium tuberculosis; conditions: in combination with pretomanid, unit inferred; read-out: average EC50 H37Rv_DdnL49P_gfp

| SMILES | EC50 [nM] |
| --- | --- |
| CCOc1ccc2nc(NC(=O)[C@@H]3C4C=CC(C4)[C@@H]3C(=O)O)sc2c1 (stereo partly shown) [Example 7, 3-[(6-ethoxy-1,3-benzothiazol-2-yl)carbamoyl]bicyclo[2.2.1]hept-5-ene-2-carboxylic acid] | 1000 |
| O=C(Nc1nc2ccc(Oc3ccc(F)cc3)cc2s1)[C@@H]1C2C=CC(C2)[C@@H]1C(=O)O (stereo partly shown) [Example 21, 3-[[6-(4-fluorophenoxy)-1,3-benzothiazol-2-yl]carbamoyl]bicyclo[2.2.1]hept-5-ene-2-carboxylic acid] | 400 |
| O=C(Nc1nc2ccc(Oc3cc(C(F)(F)F)ccn3)cc2s1)[C@@H]1C2C=CC(C2)[C@@H]1C(=O)O (stereo partly shown) [Example 27, 3-[[6-[[4-(trifluoromethyl)-2-pyridyl]oxy]-1,3-benzothiazol-2-yl]carbamoyl]bicyclo[2.2.1]hept-5-ene-2-carboxylic acid] | 230 |

same assay, conditions: read-out: EC50 H37Rv_DdnL49P_gfp

| SMILES | EC50 [nM] |
| --- | --- |
| Cc1ccc2nc(NC(=O)[C@@H]3C4C=CC(C4)[C@@H]3C(=O)O)sc2c1 (mixture of isomers) [Example 1, 3-[(6-methyl-1,3-benzothiazol-2-yl)carbamoyl]bicyclo[2.2.1]hept-5-ene-2-carboxylic acid] | 5000 to 10000 |
| Cc1ccc2nc(NC(=O)[C@@H]3C4CCC(C4)[C@@H]3C(=O)O)sc2c1 (stereo in doubt) [Example 3, 3-[(6-methyl-1,3-benzothiazol-2-yl)carbamoyl]norbornane-2-carboxylic acid] | 1000 to 5000 |
| Cc1ccc2nc(N3C(=O)[C@@H]4[C@H](C3=O)[C@@H]3C=C[C@H]4C3)sc2c1 [Example 2, (1R,2S,6R,7S)-4-(6-methyl-1,3-benzothiazol-2-yl)-4-azatricyclo[5.2.1.02,6]dec-8-ene-3,5-dione] | 5000 to 10000 |
| CCOc1ccc2nc(NC(=O)[C@@H]3C4C=CC(C4)[C@@H]3C(=O)O)sc2c1 (stereo partly shown) [Example 7, 3-[(6-ethoxy-1,3-benzothiazol-2-yl)carbamoyl]bicyclo[2.2.1]hept-5-ene-2-carboxylic acid] | < 1000 |
| CCOc1ccc2nc(N3C(=O)[C@@H]4[C@H](C3=O)[C@@H]3C=C[C@H]4C3)sc2c1 [Example 8, (1R,2S,6R,7S)-4-(6-ethoxy-1,3-benzothiazol-2-yl)-4-azatricyclo[5.2.1.02,6]dec-8-ene-3,5-dione] | 1000 to 5000 |
| COc1cc2nc(NC(=O)[C@@H]3C4C=CC(C4)[C@@H]3C(=O)O)sc2cc1OC (stereo partly shown) [Example 9, 3-[(5,6-dimethoxy-1,3-benzothiazol-2-yl)carbamoyl]bicyclo[2.2.1]hept-5-ene-2-carboxylic acid] | 5000 to 10000 |
| O=C(Nc1nc2cc3c(cc2s1)OCCO3)[C@@H]1C2C=CC(C2)[C@@H]1C(=O)O (stereo partly shown) [Example 10, 3-(6,7-dihydro-[1,4]dioxino[2,3-f][1,3]benzothiazol-2-ylcarbamoyl) bicyclo[2.2.1]hept-5-ene-2-carboxylic acid] | 10000 to 20000 |
| CCc1ccc2nc(NC(=O)[C@@H]3C4C=CC(C4)[C@@H]3C(=O)O)sc2c1 (stereo partly shown) [Example 11, 3-[(6-ethyl-1,3-benzothiazol-2-yl)carbamoyl]bicyclo[2.2.1]hept-5-ene-2-carboxylic acid] | 1000 to 5000 |
| CC(C)(C)c1ccc2nc(NC(=O)[C@@H]3C4C=CC(C4)[C@@H]3C(=O)O)sc2c1 (stereo partly shown) [Example 12, 3-[(6-tert-butyl-1,3-benzothiazol-2-yl)carbamoyl]bicyclo[2.2.1]hept-5-ene-2-carboxylic acid] | < 1000 |
| Cc1cc(C)c2nc(NC(=O)[C@@H]3C4C=CC(C4)[C@@H]3C(=O)O)sc2c1 (stereo partly shown) [Example 13, 3-[(4,6-dimethyl-1,3-benzothiazol-2-yl)carbamoyl]bicyclo[2.2.1]hept-5-ene-2-carboxylic acid] | 1000 to 5000 |
| Cc1ccc2sc(NC(=O)[C@@H]3C4C=CC(C4)[C@@H]3C(=O)O)nc2c1C (stereo partly shown) [Example 15, 3-[(4,5-dimethyl-1,3-benzothiazol-2-yl)carbamoyl]bicyclo[2.2.1]hept-5-ene-2-carboxylic acid] | 1000 to 5000 |
| Cc1cccc2sc(NC(=O)[C@@H]3C4C=CC(C4)[C@@H]3C(=O)O)nc12 (stereo partly shown) [Example 16, 3-[(4-methyl-1,3-benzothiazol-2-yl)carbamoyl]bicyclo[2.2.1]hept-5-ene-2-carboxylic acid] | 1000 to 5000 |
| O=C(Nc1nc2ccc(Oc3ccccc3)cc2s1)[C@@H]1C2C=CC(C2)[C@@H]1C(=O)O (stereo partly shown) [Example 17, 3-[(6-phenoxy-1,3-benzothiazol-2-yl)carbamoyl]bicyclo[2.2.1]hept-5-ene-2-carboxylic acid] | < 1000 |
| O=C(Nc1nc2ccc(Oc3ccccc3)cc2s1)[C@@H]1C2C=CC(C2)[C@@H]1C(=O)O (stereo partly drawn) [Example 18, [2-hydroxy-1,1-bis(hydroxymethyl)ethyl]ammonium: (1R,2S,3R,4S)-3-[(6-phenoxy-1,3-benzothiazol-2-yl)carbamoyl]bicyclo[2.2.1]hept-5-ene-2-carboxylate] | < 1000 |
| O=C1[C@@H]2[C@H](C(=O)N1c1nc3ccc(Oc4ccccc4)cc3s1)[C@@H]1C=C[C@H]2C1 [Example 19, (1R,2S,6R,7S)-4-(6-phenoxy-1,3-benzothiazol-2-yl)-4-azatricyclo[5.2.1.02,6]dec-8-ene-3,5-dione] | 1000 to 5000 |
| O=C(Nc1nc2ccc(Cc3ccccc3)cc2s1)[C@@H]1C2C=CC(C2)[C@@H]1C(=O)O (stereo partly shown) [Example 20, 3-[(6-benzyl-1,3-benzothiazol-2-yl)carbamoyl]bicyclo[2.2.1]hept-5-ene-2-carboxylic acid] | < 1000 |
| O=C(Nc1nc2ccc(Oc3ccc(F)cc3)cc2s1)[C@@H]1C2C=CC(C2)[C@@H]1C(=O)O (stereo partly shown) [Example 21, 3-[[6-(4-fluorophenoxy)-1,3-benzothiazol-2-yl]carbamoyl]bicyclo[2.2.1]hept-5-ene-2-carboxylic acid] | < 1000 |
| O=C(Nc1nc2ccc(Oc3ccc(C(F)(F)F)cc3)cc2s1)[C@@H]1C2C=CC(C2)[C@@H]1C(=O)O (stereo partly shown) [Example 22, 3-[[6-[4-(trifluoromethyl)phenoxy]-1,3-benzothiazol-2-yl]carbamoyl]bicyclo[2.2.1]hept-5-ene-2-carboxylic acid] | 1000 to 5000 |
| O=C1[C@@H]2[C@H](C(=O)N1c1nc3ccc(Oc4ccc(C(F)(F)F)cc4)cc3s1)[C@@H]1C=C[C@H]2C1 [Example 23, (1R,2S,6R,7S)-4-[6-[4-(trifluoromethyl)phenoxy]-1,3-benzothiazol-2-yl]-4-azatricyclo[5.2.1.02,6]dec-8-ene-3,5-dione] | 1000 to 5000 |
| O=C(Nc1nc2ccc(Oc3ccncc3)cc2s1)[C@@H]1C2C=CC(C2)[C@@H]1C(=O)O (stereo partly shown) [Example 24, 3-[[6-(4-pyridyloxy)-1,3-benzothiazol-2-yl]carbamoyl]bicyclo[2.2.1]hept-5-ene-2-carboxylic acid] | 5000 to 10000 |
| O=C(Nc1nc2ccc(Oc3ncccc3C(F)(F)F)cc2s1)[C@@H]1C2C=CC(C2)[C@@H]1C(=O)O (stereo partly shown) [Example 25, 3-[[6-[[3-(trifluoromethyl)-2-pyridyl]oxy]-1,3-benzothiazol-2-yl]carbamoyl]bicyclo[2.2.1]hept-5-ene-2-carboxylic acid] | 1000 to 5000 |
| O=C1[C@@H]2[C@H](C(=O)N1c1nc3ccc(Oc4ncccc4C(F)(F)F)cc3s1)[C@@H]1C=C[C@H]2C1 [Example 26, (1R,2S,6R,7S)-4-[6-[[3-(trifluoromethyl)-2-pyridyl]oxy]-1,3-benzothiazol-2-yl]-4-azatricyclo[5.2.1.02,6]dec-8-ene-3,5-dione] | 1000 to 5000 |
| O=C(Nc1nc2ccc(Oc3cc(C(F)(F)F)ccn3)cc2s1)[C@@H]1C2C=CC(C2)[C@@H]1C(=O)O (stereo partly shown) [Example 27, 3-[[6-[[4-(trifluoromethyl)-2-pyridyl]oxy]-1,3-benzothiazol-2-yl]carbamoyl]bicyclo[2.2.1]hept-5-ene-2-carboxylic acid] | < 1000 |
| O=C1[C@@H]2[C@H](C(=O)N1c1nc3ccc(Oc4cc(C(F)(F)F)ccn4)cc3s1)[C@@H]1C=C[C@H]2C1 [Example 28, (1R,2S,6R,7S)-4-[6-[[4-(trifluoromethyl)-2-pyridyl]oxy]-1,3-benzothiazol-2-yl]-4-azatricyclo[5.2.1.02,6]dec-8-ene-3,5-dione] | < 1000 |
| Cc1ccnc(Oc2ccc3nc(NC(=O)[C@@H]4C5C=CC(C5)[C@@H]4C(=O)O)sc3c2)c1 (stereo partly shown) [Example 29, 3-[[6-[(4-methyl-2-pyridyl)oxy]-1,3-benzothiazol-2-yl]carbamoyl]bicyclo[2.2.1]hept-5-ene-2-carboxylic acid] | < 1000 |
